This note sets out measurements from patent US20200158718A1, “A METHOD FOR PREDICTING TIME-TO-VIRAL CLEARANCE IN PATIENTS WITH CHRONIC HEPATITIS C VIRUS (HCV) INFECTION UNDER DIRECT ACTING ANTIVIRAL (DAA) THERAPY” (priority 2017, published 2020).

What all share (assay type): in vivo, human
Test [1] has as its system ALT, alanine aminotransferase. As to the kind of experiment: Observational trial (training set): ALT level of chronic HCV patients under DAA therapy. To be noted: one line per patient (Table 3); for ALT level EOT: end of treatment; for ALT level wk 4: week 4 of therapy; for ALT level SVR12: week 12 after end of treatment. The protocol: (§1) Peripheral blood samples were provided by patients with chronic HCV infection, who were participating in an observational trial (clinicaltrials.gov: NCT02904603) authorized by the local ethics committee. For a training trial, 23 patients (genotype 1a (n=10), 1b (n=9) and 3 (n=4)) were treated with daclatasvir plus sofosbuvir (DCV/SOF; n=15), ledipasvir plus sofosbuvir (LDV/SOF; n=4) or with ritonavir-boosted paritaprevir, ombitasvir, and dasabuvir (n=4).
(§2) A sustained virological response to DAA therapy is generally achieved in 85-99% of chronic HCV patients, depending upon viral genotype, patient-related factors and the choice of treatment regime. In the present study of 23 patients with chronic HCV infection, 22 had achieved a sustained virological response at 12 weeks post-treatment (SVR12). Clearance of virus was associated with improved liver function and reduction in systemic markers of liver inflammation. Although most patients achieved sustained virological responses by 12 weeks, there was considerable variation in time to HCV RNA negativity and normalization of biochemical parameters. Baseline mean HCV RNA titer was 6.12±0.12 log 10 IU/ml, falling to 1.2±0.14 log 10 IU/ml by 4 weeks, at which time 12/23 patients were HCV RNA <12 IU/ml. HCV establishes persistent infections during which virus-specific CD4+ and CD8+ T cells become impaired through progressive functional exhaustion or clonal deletion, and intrahepatic NK cell responses are subdued. […] In particular, this study aimed to identify a minimal set of immunological markers that accurately classified patients with chronic HCV infections as “fast responders” (i.e. HCV RNA <12 IU/ml by 4 weeks) or “slow responders” (i.e. HCV RNA >12 IU/ml at 4 weeks, irrespective of later outcome). These biomarkers were to be independent of viral genotype, baseline fibrosis score, previous HCV treatment, and other patient-related factors. Therefore, the influence of the ALT levels, of the HCV genotype, of a previous treatment for chronic HCV, and the pre-treatment fibrosis score were also analyzed.

The test system of test [2] is hepatitis C virus (HCV). Nature of the test: Observational trial (training set): HCV-RNA / virological response of chronic HCV patients under DAA therapy. As to conditions: for Response to DAA Therapy: one line per patient (Table 1, patients 1-23), SVR12 = undetectable HCV-RNA at week 12 after end of treatment, relapse = undetectable at EOT but detectable during follow-up, patients 5, 9 treated 24 weeks, patients 18, 23 treated 8 weeks; for HCV-RNA EOT / HCV-RNA wk 4 / HCV-RNA SVR12: one line per patient (Table 3); for HCV-RNA EOT: end of treatment; for HCV-RNA wk 4: week 4 of therapy; for HCV-RNA SVR12: week 12 after end of treatment. The protocol:
The expression “time-to-viral clearance” indicates the period until no HCV RNA detection with currently available detection methods, e.g. as measured by PCR, particularly by quantitative real-time PCR in peripheral blood samples, e.g. in samples of at least 5 ml EDTA blood or whole blood is possible. Using a standard PCR-based test, fewer than 12 copies per milliliter blood is considered to be clinically clear of HCV (Table 3).
as §1, §2

The subject of test [3] is hepatitis C virus (HCV). As to the kind of experiment: Prospective set: HCV-RNA at week 4 of DAA therapy in a further 10 chronic HCV patients. As to conditions: one line per patient (Table 5, prospective set). The source says:
To verify that the model accurately predicted fast and slow responses, data were collected from a further 10 chronic HCV patients prior to DAA treatment (Table 5). In this “prospective set”, 8 patients were slow responders and 2 were fast responders: all slow responders were correctly classified as such (Table 2D). The model also correctly identified 1 of 2 fast responders. […] For the purpose of prospectively and safely shortening DAA therapy, a test with high specificity is more important than one with high sensitivity.
To verify that the herein disclosed model accurately predicts fast and slow responses, data were collected from a further 10 chronic HCV patients prior to DAA treatment (cf. the Table 5 below).

Values joined by “and” are separate entries in the source; they are usually repeats but may differ in a detail not shown here. Identical values can stand only once.

With “ritonavir-boosted paritaprevir, ombitasvir, and dasabuvir [3D]”, in test [1], the “ALT level EOT” value was 21 U/L and 15 U/L and 23 U/L; the “ALT level wk 4” value is 24 U/L and 17 U/L and 19 U/L; the “ALT level SVR12” value was 24 U/L and 21 U/L. Further, in the test with hepatitis C virus (HCV) [2], the “Response to DAA Therapy” value was “SVR12”, the “HCV-RNA EOT” value is “neg”, the “HCV-RNA wk 4” value is on record as “neg” and the “HCV-RNA SVR12” value is on record as “neg”.
For the substance daclatasvir plus sofosbuvir [SOF + DCV], the “Response to DAA Therapy wk 4” value with hepatitis C virus (HCV) [3] was 30 IU/ml. In addition, in test [1], the “ALT level EOT” value was 44 U/L and 46 U/L and 24 U/L and 45 U/L and 61 U/L and 42 U/L and 30 U/L and 70 U/L and 17 U/L and 23 U/L (2×) and 47 U/L and 22 U/L and 19 U/L and 31 U/L; the “ALT level wk 4” value is 38 U/L and 42 U/L and 27 U/L and 51 U/L and 47 U/L and 34 U/L (2×) and 25 U/L and 62 U/L and 22 U/L and 31 U/L and 28 U/L and 29 U/L and 24 U/L and 23 U/L; the “ALT level SVR12” value was 31 U/L and 35 U/L and 21 U/L (3×) and 41 U/L and 37 U/L and 43 U/L and 24 U/L and 62 U/L and 17 U/L and 107 U/L and 25 U/L and 23 U/L and 42 U/L. For the same substance, in the test with hepatitis C virus (HCV) [2], the “HCV-RNA EOT” value was “neg. (7×) and <12 IU/ml (8×)”; the “HCV-RNA wk 4” value was <12 IU/ml (4×) and neg; the “HCV-RNA SVR12” value is on record as “neg”.
Take ledipasvir plus sofosbuvir [SOF + LDV]: the “Response to DAA Therapy wk 4” value in the test on hepatitis C virus (HCV) [3] is 61 IU/ml and <12 IU/ml (2×) and 51 IU/ml and 12 IU/ml (2×) and 14 IU/ml. Also, in test [1], the “ALT level EOT” value is 31 U/L and 64 U/L and 23 U/L and 24 U/L; the “ALT level wk 4” value was 31 U/L and 74 U/L and 22 U/L and 24 U/L; the “ALT level SVR12” value was 27 U/L and 32 U/L and 21 U/L and 10 U/L. In the test with hepatitis C virus (HCV) [2], the “Response to DAA Therapy” value is listed as “SVR12”, the “HCV-RNA EOT” value is given as “neg”, the “HCV-RNA wk 4” value was less than 12 IU/ml and the “HCV-RNA SVR12” value is listed as “neg”.
